Activity calls are given as the source filed them.
Tests used:
Sus scrofa = organism: Sus scrofa; assay: Inhibition of pig pancreatic trypsin using Nalpha-benzoyl-DL-arginine-4-nitroanilide as substrate at 10 uM incubated for 15 mins prior to substrate addition measured ever 30 secs for 30 mins by spectroscopy
HT-29 = assay: Cytotoxicity against human HT-29 cells at 25 uM; assay type: functional, cell-based
Homo sapiens = organism: Homo sapiens; assay: Inhibition of 20S proteasome at 25 uM

C/C=C1/NC(=O)[C@@H](NC(=O)[C@H](CCC(N)=O)NC(=O)[C@@H]2CCCN2C=O)[C@@H](C)OC(=O)[C@H](C(C)C)NC(=O)[C@H](Cc2ccc(O)cc2)N(C)C(=O)[C@H](Cc2ccccc2)N2C(=O)[C@H](CC[C@H]2O)NC1=O
inactive: inhibition (Sus scrofa) | Activity (HT-29) | inhibition (Homo sapiens)

— ChEMBL document CHEMBL2062367, “Stigonemapeptin, an Ahp-containing depsipeptide with elastase inhibitory activity from the bloom-forming freshwater cyanobacterium Stigonema sp” (J Nat Prod, 2012)
